Assay results reported in ChEMBL document CHEMBL1125688, “The synthesis and potassium channel blocking activity of some (4-methanesulfonamidophenoxy)propanolamines as potential class III antiarrhythmic agents” (1991).

Assays:
Cavia porcellus [1] = species: Cavia porcellus; experiment: Compound was evaluated for the increase in duration or cardiac APD (action potential duration) at 90% repolarization, using isolated guinea pig ventricular myocytes at concentration of 10 nM; type: functional, Heart, Ventricular myocyte
Cavia porcellus [2] = species: Cavia porcellus; experiment: Compound was evaluated for the increase in duration or cardiac APD (action potential duration) at 90% repolarization, using isolated guinea pig ventricular myocytes at concentration of 50 nM; type: functional, Heart, Ventricular myocyte
Cavia porcellus [3] = species: Cavia porcellus; experiment: Compound was evaluated for the increase in duration or cardiac APD (action potential duration) at 90% repolarization, using isolated guinea pig ventricular myocytes at concentration of 1 nM; type: functional, Heart, Ventricular myocyte
Cavia porcellus [4] = species: Cavia porcellus; experiment: Compound was evaluated for the increase in duration or cardiac APD (action potential duration) at 90% repolarization, using isolated guinea pig ventricular myocytes at concentration of 100 nM; type: functional, Heart, Ventricular myocyte; parameters: unit not given here
Cavia porcellus [5] = species: Cavia porcellus; experiment: Compound was evaluated for the increase in duration or cardiac APD (action potential duration) at 90% repolarization, using isolated guinea pig ventricular myocytes at concentration of 1000 nM; type: functional, Heart, Ventricular myocyte; parameters: unit not given here
Cavia porcellus [6] = species: Cavia porcellus; experiment: Compound was evaluated for the increase in duration or cardiac APD (action potential duration) at 90% repolarization, using isolated guinea pig ventricular myocytes at concentration of 10000 nM; type: functional, Heart, Ventricular myocyte; parameters: unit not given here
Cavia porcellus [7] = species: Cavia porcellus; experiment: Compound was evaluated for the increase in duration or cardiac APD (action potential duration) at 90% repolarization, using isolated guinea pig ventricular myocytes at concentration of 250 nM; type: functional, Heart, Ventricular myocyte
Cavia porcellus [8] = species: Cavia porcellus; experiment: Compound was evaluated for the increase in duration or cardiac APD (action potential duration) at 90% repolarization, using isolated guinea pig ventricular myocytes at concentration of 33000 nM; no detectable change; type: functional; conditions: Heart, Ventricular myocyte
Cavia porcellus [9] = species: Cavia porcellus; experiment: Compound was evaluated for the increase in duration or cardiac APD (action potential duration) at 90% repolarization, using isolated guinea pig ventricular myocytes at concentration of 10000 nM; no detectable change; type: functional; conditions: Heart, Ventricular myocyte
Cavia porcellus [10] = species: Cavia porcellus; experiment: Compound was evaluated for the increase in duration or cardiac APD (action potential duration) at 90% repolarization, using isolated guinea pig ventricular myocytes at concentration of 10000 nM; No detectable change; type: functional; conditions: Heart, Ventricular myocyte
Cavia porcellus [11] = species: Cavia porcellus; experiment: Compound was evaluated for the increase in duration or cardiac APD (action potential duration) at 90% repolarization, using isolated guinea pig ventricular myocytes at concentration of 33000 nM; No detectable change; type: functional; conditions: Heart, Ventricular myocyte
Cavia porcellus [12] = species: Cavia porcellus; experiment: Compound was evaluated for the increase in duration or cardiac APD (action potential duration) at 90% repolarization, using isolated guinea pig ventricular myocytes at concentration of 50000 nM; no detectable change; type: functional; conditions: Heart, Ventricular myocyte
Cavia porcellus [13] = species: Cavia porcellus; experiment: Compound was evaluated for the increase in duration or cardiac APD (action potential duration) at 90% repolarization, using isolated guinea pig ventricular myocytes at concentration of 50000 nM; type: functional, Heart, Ventricular myocyte
Cavia porcellus [14] = species: Cavia porcellus; experiment: Compound was evaluated for the increase in duration or cardiac APD (action potential duration) at 90% repolarization, using isolated guinea pig ventricular myocytes at concentration of 33000 nM; type: functional, Heart, Ventricular myocyte
Cavia porcellus [15] = species: Cavia porcellus; experiment: Compound was evaluated for the increase in duration or cardiac APD (action potential duration) at 90% repolarization, using isolated guinea pig ventricular myocytes at concentration of 75000 nM; type: functional, Heart, Ventricular myocyte

## CS(=O)(=O)Nc1ccc(OCC(O)CN2CCC(c3ccc(C(F)(F)F)cc3)CC2)cc1 (stereo unspecified)
Cavia porcellus [1]
  Delta APD90: 100
Cavia porcellus [2]
  Delta APD90: 100
Cavia porcellus [3]
  Delta APD90: 40

## CS(=O)(=O)Nc1ccc(OCC(O)CN2CCC(c3ccc(Cl)cc3)CC2)cc1 (stereo unspecified)
Cavia porcellus [1]
  Delta APD90: 100
Cavia porcellus [3]
  Delta APD90: 50

## CN(C/C=C/c1ccccc1)CC(O)COc1ccc(NS(C)(=O)=O)cc1 (stereo unspecified)
Cavia porcellus [4]
  Delta APD90: 100
Cavia porcellus [2]
  Delta APD90: 50

## COc1ccc(CCNCC(O)COc2ccc(NS(C)(=O)=O)cc2)cc1OC (stereo unspecified)
Cavia porcellus [5]
  Delta APD90: 15
Cavia porcellus [6]
  Delta APD90: 80

## CN(CCOc1ccc(NS(C)(=O)=O)cc1)CCc1ccc(NS(C)(=O)=O)cc1 [DOFETILIDE]
Cavia porcellus [7]
  Delta APD90: 100
Cavia porcellus [4]
  Delta APD90: 63
Cavia porcellus [2]
  Delta APD90: 23

## O=C(O)c1ccc(OCC(O)CN2CCC(c3ccccc3)CC2)cc1 (stereo unspecified)
Cavia porcellus [5]
  Delta APD90: 36

## CS(=O)(=O)Nc1ccc(OCC(O)CN2CCN(c3ccccc3)CC2)cc1 (stereo unspecified)
Cavia porcellus [5]
  Delta APD90: 78
Cavia porcellus [6]
  Delta APD90: 100

## CN(c1ccc(OCC(O)CNCCc2ccccc2)cc1)S(C)(=O)=O (stereo unspecified)
Cavia porcellus [8]
  Delta APD90: No detectable change
Cavia porcellus [9]
  Delta APD90: No detectable change

## CS(=O)(=O)Nc1ccc(OCC(O)CNCCc2ccc(Cl)cc2)cc1 (stereo unspecified)
Cavia porcellus [6]
  Delta APD90: 90

## CC(C)NCC(O)COc1ccc(N(C)S(C)(=O)=O)cc1 (stereo unspecified)
Cavia porcellus [10]
  Delta APD90: No detectable change
Cavia porcellus [11]
  Delta APD90: No detectable change

## CN(CCCc1ccccc1)CC(O)COc1ccc(NS(C)(=O)=O)cc1 (stereo unspecified)
Cavia porcellus [4]
  Delta APD90: 70

## CS(=O)(=O)Nc1ccc(OCC(O)CN2CCC(c3ccccc3)CC2)cc1 (stereo unspecified)
Cavia porcellus [5]
  Delta APD90: 100
Cavia porcellus [4]
  Delta APD90: 48

## CN(CCc1ccc(Cl)c(Cl)c1)CC(O)COc1ccc(NS(C)(=O)=O)cc1 (stereo unspecified)
Cavia porcellus [1]
  Delta APD90: 42
Cavia porcellus [4]
  Delta APD90: 85
Cavia porcellus [3]
  Delta APD90: 20

## CS(=O)(=O)Nc1ccc(OCC(O)CN2CCc3ccccc3C2)cc1 (stereo unspecified)
Cavia porcellus [4]
  Delta APD90: 60

## CN(CCc1ccccc1)CC(O)COc1ccc(NS(C)(=O)=O)cc1 (stereo unspecified)
Cavia porcellus [5]
  Delta APD90: 88
Cavia porcellus [4]
  Delta APD90: 48

## CS(=O)(=O)Nc1cccc(OCC(O)CN2CCC(c3ccccc3)CC2)c1 (stereo unspecified)
Cavia porcellus [5]
  Delta APD90: 48

## CNCC(O)COc1ccc(NS(C)(=O)=O)cc1 (stereo unspecified)
Cavia porcellus [9]
  Delta APD90: No detectable change
Cavia porcellus [12]
  Delta APD90: No detectable change

## CCN(CC)CC(O)COc1ccc(NS(C)(=O)=O)cc1 (stereo unspecified)
Cavia porcellus [5]
  Delta APD90: 25
Cavia porcellus [6]
  Delta APD90: 85

## COc1ccc(CCN(C)CC(O)COc2ccc(NS(C)(=O)=O)cc2)cc1OC (stereo unspecified)
Cavia porcellus [5]
  Delta APD90: 100
Cavia porcellus [4]
  Delta APD90: 40

## CC(C)NCC(O)c1ccc(NS(C)(=O)=O)cc1 (stereo unspecified) [SOTALOL]
Cavia porcellus [13]
  Delta APD90: 30
Cavia porcellus [6]
  Delta APD90: 75

## CS(=O)(=O)Nc1ccc(OCC(O)CNCCc2ccccc2)cc1 (stereo unspecified)
Cavia porcellus [6]
  Delta APD90: 80

## COc1ccc(CCN(CC(O)COc2ccc(NS(C)(=O)=O)cc2)C(C)C)cc1OC (stereo unspecified)
Cavia porcellus [5]
  Delta APD90: 100
Cavia porcellus [4]
  Delta APD90: 65

## CC(C)NCC(O)COc1ccc(NS(C)(=O)=O)cc1 (stereo unspecified)
Cavia porcellus [14]
  Delta APD90: 33
Cavia porcellus [9]
  Delta APD90: No detectable change

## CC(C)(C)NCC(O)COc1ccc(NS(C)(=O)=O)cc1 (stereo unspecified)
Cavia porcellus [13]
  Delta APD90: 75
Cavia porcellus [15]
  Delta APD90: 75
Cavia porcellus [14]
  Delta APD90: 40
